The values below are quoted from earlier work in patent US8309351B2, “Methods of identifying agents that inhibit angiogenesis” (Bionomics Limited, priority 2007, dated 2012).

The data set has as its system lung cancer cells. Conditions: knock-down of beta III tubulin in lung cancer cells.

As for `CC(=O)O[C@H]1C(=O)[C@@]2(C)[C@H]([C@H](OC(=O)c3ccccc3)[C@]3(O)C[C@H](OC(=O)[C@H](O)[C@@H](NC(=O)c4ccccc4)c4ccccc4)C(C)=C1C3(C)C)[C@]1(OC(C)=O)CO[C@@H]1C[C@@H]2O` [paclitaxel], the “increase in paclitaxel sensitivity” value is 39%.
